Like-named read-outs stand apart in the source and are kept apart here. A value given as a limit tells only on which side of the number the result lay.

The text below walks through data of US5504244A, “Alkylarylketo acids” (Boehringer Ingelheim Pharmaceuticals, Inc., priority 1993, dated 1996).

What all share (type): cell-based
Experiment [1] relates to guinea pig ileal strips. Kind of experiment: Modified Schultz-Dale Assay: inhibition of antigen-induced anaphylactic contraction of passively sensitized ileal strips. Conditions: Cavia porcellus, **tested at 20 μg/ml.
Experiment [2] has as its system guinea pig ileal strips. Described as above. The note with it: Cavia porcellus; for IC50: value in parentheses. The method, then: In the classic Schultz-Dale assay, guinea pigs are sensitized with a known immunogen or passively sensitized with guinea pig antiserum to the immunogen, strips of ilea are recovered, and the extent of their contraction in response to a challenge exposure to the same antigen is observed as a measure of anaphylactic response. The experiments described here follow this same procedure while exposing the ileal strips to test compound before exposure to antigen challenge (preincubation) and, in some strips, also after antigen challenge (postincubation).
The male Hartley strain guinea pigs (450-650 g) whose ilea are used in this Schultz-Dale assay are passively sensitized with IgE antiovalbumin antiserum as follows. The antiserum is developed in another group of similar guinea pigs as described in Graziano, et al., J. Immunol. 127:1067-1070 (1981) and pooled. The test animals are then each passively sensitized by subcutaneous injection of the pooled antiserum (1 ml).
About 2-7 days after sensitization, the guinea pigs are sacrificed and the terminal ilea are removed. They are cut into strips (6 cm) and positioned in tissue baths (5 ml) of Tyrode's solution with atropine (1 μg/ml) at 37° C. One end of each strip is fixed to an immobile post and the other movably mounted to a Grass Ft. 0.03 linear force displacement transducer and a Grass Model 7 polygraph. The tension is set (at 1 gram) and the tissue is allowed to equilibrate (10 minutes). Tissue viability is tested by establishing a consistent response to histamine (0.5 μg/ml). After several histamine-induced contractions, mepyramine (1 μg/ml) is added to inhibit any contractions due to the anaphylactic release of endogenous histamine.
A minimum of 3 animals are used for each compound tested and, of the 6 strips from each animal, 2 strips are incubated (preincubation) with a test compound (final concentration 75 μM), 2 with an appropriate reference standard (BW-755C at 75 μM) and 2 with saline solution (control) for a predetermined period (5 minutes). After this initial incubation period, ovalbumin (100 μg/ml) is added to each bath and the resulting anaphylactic contraction measured. The data are recorded as of tension produced by the tissue in excess of the 1 gram tension that was initially set. At the peak of the contraction, a dose of the same test compound (75 μM) is added (postincubation) to one control strip and reference standard (FPL-55712 at 1.9 μM). The strips are monitored (1 minute) and any effect on the established contraction is recorded as described above.
Two types of data are derived from the above protocol. First, pre-antigen inhibition (prechallenge) is expressed as the percent inhibition in each of the strips preincubated with test compound measured against the averaged contractions of the two control strips. Prechallenge inhibition by the reference standard is also determined in each experiment as a positive control. The reference used consistently gives 60-80% inhibition. Second, post-antigen inhibition (postchallenge) is determined by measuring the decrease in anaphylactic contraction of a control strip produced by adding either a test compound or standard at the peak of the contraction. The reference used consistently gives 70-90% inhibition. The data in each experiment, therefore, consists of 2 prechallenge and 1 postchallenge value for both test compound and standard.

Experiment [3] has as its system 5-HETE biosynthesized by glycogen-stimulated polymorphonuclear leucocytes (PMNs). Kind of experiment: Hydroxyacid Profile Assay (HPA): inhibition of 5-HETE synthesis in glycogen-elicited rabbit PMNs. The note with it: Oryctolagus cuniculus, Leucocyte. The method, then:
As previously noted 5-HETE biosynthesis serves as a marker for arachidonic acid metabolism via the 5-lipoxygenase pathway which produces (poly)hydroxyeicosatetraenoic acids and the potent bronchoconstrictor and vasoactive leukotrienes LTC4, LTD4 and LTE4.
Buffer A (8.70 g NaCl; 0.27 g KCl; 0.42 g Na2 HPO4; 0.76 g KH2 PO4; and 1.00 g dextrose per liter H2 O; pH 7.0) (0.325 ml) is introduced into each of a battery of screwtop culture tubes. Then, a solution of a compound (0.100 ml) to be assayed is dispensed into individual tubes. Assays are performed in duplicate at 100 μM and 10 μM concentrations. Control tubes receive Buffer A (0 100 ml) in lieu of compound. Next, rabbit PMNs (2×10^7 cells/tube; 4×10^7cells/ml) (0.500 ml) are added to each tube. The rabbit PMN's used are elicited with glycogen and made into a preparation substantially as described by F. Hirata. et al (1979) Proc. Natl. Acad. Sci. USA, 76, 2640-2643. The tubes are vortexed and preincubated in a shaking 37° C. water bath for 15 minutes.
Thereafter, the tubes are removed from the water bath and calcium ionophore solution (400 μg/ml A-23187; Sigma Chemical Co., St. Louis, Mo.) (0.025 ml), ^14 C-arachidonic acid (0.25 μCi in 0.025 ethanol; New England Nuclear Products, Boston, Mass.) (0.025 ml) and calcium chloride solution (CaCl2.2H2 O ); 105.8 mg/10 […]) (0.025 ml) are added in that order. The tubes are vortexed and returned to the water bath for 30 minutes. The reaction is then terminated by the addition of HCl (0.8N, 0.025 ml).
Extraction and concentration of ^14 C-labeled 5-HETE is performed as follows. First, solution containing 2 parts ethyl acetate, 3 parts CH2 Cl2 and 0.01 ml unlabeled arachidonic acid is added (5.01 ml) to each tube. The tubes are capped and briefly vortexed. The contents of each tube is poured into a polypropylene column fitted with a porous polyethylene disc and Whatman phase separation filter paper. The organic phase is collected by gravity filtration into a conical centrifuge tube, While the aqueous phase is retained in the column by the phase separation paper. Each culture tube is rinsed once with the EtOAc:CH2 Cl2 solution (1.0 ml) and the wash added to the column. The organic phase is concentrated to (0.5 ml) using a Savant Speed Vac concentrator (Savant Instruments, Inc., Hicksville, N.Y.).
After concentration of the organic phase, the tubes are vortexed and stored covered on ice. An aliquot (0.01 ml) is then removed for liquid scintillation counting in a Beckman LS7500 Liquid Scintillation Counter (Beckman Instruments Corp., Fullerton, Calif.). Based on the count, the number of μl containing 1×10^5 cpm is calculated. This volume is applied to a silica gel covered glass plate in a 10 mm streak. The remaining fluid in the tube is measured via syringe and noted.
The TLC plate is placed in a chromatography chamber containing the following solvent system: CHCl3 :MeOH:HOAc:H2 O (v/v;90: 9:1:0.65). The plate is then air dried and counted on a Berthold Linear TLC Analyzer (Berthold Instruments, Inc., Pittsburgh, Pa.) for 30 minutes per lane if a dose response curve had been run, or for 5 min per lane if drug screening had been done. The integrated area of the 5-HETE band for each compound is converted to percent of control and analyzed. The percent inhibition at 100 μM compound concentration and the concentration (μM) which produces a 50% inhibition of 5-HETE synthesis (IC50), are determined for those compounds described in Examples 1-36, and are reported in Table 1 .

For experiment [4] the test system is unchanged. The description is as above. The note with it: Oryctolagus cuniculus, Leucocyte, read-out: Percent Inhibition; for inhibition at 50 µM: **tested at 50 μM.
[5] abbreviates: added at peak of contraction after antigen, read-out: Postchallenge mean percent inhibition.
[6] abbreviates: preincubation before ovalbumin antigen, read-out: Prechallenge mean percent inhibition.

For orientation: inhibition means the percentage by which the read-out fell short of the control. In general, IC50 refers to the concentration that inhibits the measured activity by half. For the compound `CCCCCc1ccc(C(=O)CCCCC(=O)O)cc1` [Example 2, 5-(4-n-Pentylbenzoyl)pentanoic acid], the results for the inhibition at 20 µg/mL in the experiment on guinea pig ileal strips [1] (setting [5]) and in the experiment with guinea pig ileal strips [1] (setting [6]) were 58% and 81%, respectively. Moreover, the IC50 is above 75 µM in the experiment with guinea pig ileal strips [2] (added at peak of contraction after antigen, read-out: Postchallenge IC50); 35 µM with guinea pig ileal strips [2] (preincubation before ovalbumin antigen, read-out: Prechallenge IC50); 70 µM in experiment [3] (read-out: IC50 (50% inhibition of 5-HETE synthesis)). For the same compound, the inhibition at 100 µM in experiment [3] (100 μM, 5-HETE synthesis, read-out: Percent Inhibition (100 μM)) stood at 59%.
For the compound `CCCCCCCc1ccc(C(=O)c2ccc(C(=O)O)cc2)cc1` [Example 14, 4-(4-n-Heptylbenzoyl)benzoic acid], the inhibition at 50 µM in experiment [4] worked out at 87%. Besides, the results for the inhibition at 75 µM in the experiment on guinea pig ileal strips [2] (setting [5]) and with guinea pig ileal strips [2] (setting [6]) were 16% and 44%, respectively.
In the case of `CCCCCCCc1ccc(C(=O)CCCCCC(=O)O)cc1` [Example 20, 6-(4-n-Heptylbenzoyl)hexanoic acid], the inhibition at 50 µM in experiment [4] is 60%. Also, the inhibition at 75 µM was 3% in the experiment with guinea pig ileal strips [2] (setting [5]) and 57% with guinea pig ileal strips [2] (setting [6]).
With `O=C(O)CCCC(=O)c1ccccc1` [Example 22, 4-Benzoylbutanoic acid, reference compound], the inhibition at 1000 µM in experiment [4] (at 1000 μM) was found to be 0%. For the same compound, the inhibition at 20 µg/mL in the experiment on guinea pig ileal strips [1] (setting [5]) amounted to 11%; in the experiment with guinea pig ileal strips [1] (setting [6]), 0%.
